Experimental data reported in PMC9653733, “Characterization of a Potent, Selective, and Safe Inhibitor, Ac15(Az8)2, in Reversing Multidrug Resistance Mediated by Breast Cancer Resistance Protein (BCRP/ABCG2)” (International Journal of Molecular Sciences, 2022).

Experiments:
S1 xenograft = assay: In vivo efficacy in parental S1 xenograft; design: species or system Balb/c nu nu mice; conditions: four times (700% without treatment)
Source text: (A) S1 xenograft. (B) S1M180 xenograft. There were 3 treatment groups in S1 and S1M180 xenograft model. Treatments were given as indicated by an arrow (↑). % of tumor volume reduction was compared among different treatment groups on days 55 and 71. a, b, and c = mean tumor volume of solvent control, topotecan alone, and combination treatment groups on day 55, respectively. d and e = mean tumor volume of topotecan alone and combination treatment groups on day 71. (C) Tumor weight of S1M180-bearing mice on termination day. (D) % change of tumor volume and tumor doubling time of S1M180 xenograft were determined on days 55 and 71. […] Number of animal death was monitored during the efficacy study. (E) Body weight of S1M180-bearing mice. (F) To measure plasma and intratumor level of topotecan, S1M180-bearing mice were administered with 45 mg/kg (I.P.) of Ac15(Az8)2 one hour prior to 6 mg/kg (I.P.) of topotecan administration. Five hours after topotecan administration, the mice were sacrificed. Plasma and tumor were collected for analyzing topotecan level using UPLC–MS/MS. Student’s unpaired two-tailed t-test was performed between combination group and topotecan alone group or solvent control group as indicated (* p < 0.05, ** p < 0.01, *** p < 0.001).

BCRP (S1M180 cells) = target: T1, BCRP (S1M180 cells) (Homo sapiens, UniProt Q9UNQ0, R482G); assay: Drug accumulation assay in S1M180; assay type: cell-based
T1 construct: endogenous in cells; host or cells: S1M180 (human colon carcinoma, mitoxantrone-selected)
T1 sequence (Q9UNQ0 1-655 R482G): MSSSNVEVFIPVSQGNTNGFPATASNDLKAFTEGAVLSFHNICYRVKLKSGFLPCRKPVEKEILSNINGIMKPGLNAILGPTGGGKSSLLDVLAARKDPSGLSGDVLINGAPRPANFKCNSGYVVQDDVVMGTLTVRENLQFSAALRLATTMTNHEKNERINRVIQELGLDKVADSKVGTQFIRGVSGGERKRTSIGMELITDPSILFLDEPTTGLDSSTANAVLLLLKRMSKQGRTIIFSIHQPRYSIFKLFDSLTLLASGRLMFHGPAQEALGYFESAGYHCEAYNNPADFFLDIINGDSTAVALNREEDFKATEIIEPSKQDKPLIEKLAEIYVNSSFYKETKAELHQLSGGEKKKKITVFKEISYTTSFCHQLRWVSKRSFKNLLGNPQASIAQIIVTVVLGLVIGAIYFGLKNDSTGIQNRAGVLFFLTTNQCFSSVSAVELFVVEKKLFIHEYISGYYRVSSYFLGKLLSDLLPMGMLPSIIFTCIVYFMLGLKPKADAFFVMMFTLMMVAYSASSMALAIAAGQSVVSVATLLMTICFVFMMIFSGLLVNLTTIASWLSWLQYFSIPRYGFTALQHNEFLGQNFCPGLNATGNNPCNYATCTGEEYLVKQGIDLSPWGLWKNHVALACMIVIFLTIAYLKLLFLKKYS
Protocol: Figure 2 Effect of Ac15(Az8)2 on intracellular accumulation of BCRP-substrates in S1 and S1M180 cells. Cells were pre-treated with 0.1% DMSO, 100 nM, or 1000 nM Ac15(Az8)2 and then incubated with BCRP substrates. (A) Topotecan accumulation. (B) DOX accumulation. The intracellular level of drug after treatment was normalized to that of S1 cells after incubating with 0.1% DMSO. Student unpaired two-tailed t-test was conducted as indicated (** p < 0.01, *** p < 0.001). (C) To measure DOX efflux, S1M180 cells were pre-incubated with medium containing 20 μM DOX for 1 h at 37 °C. Cells were then washed and further incubated with or without 1 µM of Ac15(Az8)2. At 0, 5, 10, 30, 60, 120, and 180 min, the cells were harvested to measure the intracellular DOX level. (D) To determine intracellular Ac15(Az8)2 concentration, 1 × 10^7 cells were incubated with 1 µM of Ac15(Az8)2 at 37 °C for 2 h. Cells were then washed with ice-cold PBS. To the cell pellet, acetonitrile was added to lyse the cells, and the supernatant was saved for Ac15(Az8)2 determination using UPLC–MS/MS.
Briefly, 1 × 10^6 cells of S1 and S1M180 cells were pre-incubated with 100 nM or 1000 nM Ac15(Az8)2 for 2 h and followed by 50 µM of topotecan or 20 µM of DOX for 1-h incubation. DMSO at 0.1% was used as a negative control. After incubation, the cells were spun down and washed with cold PBS, pH7.4 for 2 times and lysed with 100 μL of lysis buffer (0.75 M HCl, 0.2% Triton-X100 in isopropanol) with vigorous vortex. The lysate was further incubated at 37 °C for 20 min. After incubation, the lysate was spun down, and 100 μL of supernatant was saved and seeded into a black 96-well microtiter plate. The fluorescence level of DOX was determined by a fluorescence microplate reader (BMG Technologies) using excitation and an emission wavelength pair of 460 nm and 610 nm.

S1M180 cells = assay: Cytotoxicity of anticancer drugs in S1M180 (0.1% DMSO); assay type: cell-based, human
Protocol: In total, 6500 cells of S1M180 or MCF7-MX100 were incubated with various doses of topotecan or DOX and modulators. The final volume in each well of 96-well plates was 200 µL. The plates were then incubated for 5 days at 37 °C. The CellTiter 96 AQueous Assay (Promega) was used to measure cell proliferation. According to the manufacturer’s instructions, MTS (2 mg/mL) and PMS (0.92 mg/mL) were mixed in a ratio of 20:1. An aliquot (10 μL) of the freshly prepared MTS/PMS mixture was added into each well, and the plate was incubated for 2 h at 37 °C. Optical absorbance at 490 nm was then recorded with microplate absorbance reader (Bio-Rad). IC50 values were calculated from the dose-response curves of MTS assays (Prism 4.0).

[1] = 100 nM or 1000 nM Ac15(Az8)2, 2 h pre-incubation

With COC(=O)c1cccc(COc2c(-c3ccc(OCCOCCn4cc(CN(Cc5ccccc5)Cc5cn(CCOCCOc6ccc(-c7oc8ccccc8c(=O)c7OCc7cccc(C(=O)OC)c7)cc6)nn5)nn4)cc3)oc3ccccc3c2=O)c1 [Ac15(Az8)2] the “Xenograft volume on the 11th day” value (S1 xenograft; topotecan 2 mg/kg + 45 mg/kg Ac15(Az8)2 I.P. every other day) was 200%, the “Effect on DOX accumulation in S1M180” value (BCRP (S1M180 cells); [1]) was “increase the accumulation” and the “Effect on topotecan accumulation in S1M180” value (BCRP (S1M180 cells); [1]) was “increase the accumulation”.
With CC[C@@]1(O)C(=O)OCc2c1cc1n(c2=O)Cc2cc3c(CN(C)C)c(O)ccc3nc2-1 [topotecan] the IC50 (S1M180 cells; Homo sapiens, S1-M1-80, S1M180 + 0.1% DMSO, mean ± S.D., n = 3, read-out: IC50 of topotecan) was 12.4 µM, the “RF (Relative Fold), topotecan” value (S1M180 cells; S1M180 + 0.1% DMSO (reference)) was 1.0 and the “Xenograft volume on the 11th day” value (S1 xenograft; topotecan alone 2 mg/kg I.P. every other day) was 200%. The “Topotecan accumulation in S1M180, fold less than parental S1” value (BCRP (S1M180 cells); 50 µM topotecan, 1 h, p < 0.01) was “about 2.1 fold”.
